Reference: ChEMBL document CHEMBL1155768, “Dexamethasone as adjuvant therapy to moxifloxacin attenuates valve destruction in experimental aortic valve endocarditis due to Staphylococcus aureus” (Antimicrob Agents Chemother, 2007)
Converted amounts (≈) assume the structure as drawn. The source made the active and inactive calls. No cut-off for these calls is given here.

Key:
[1] = Concentration in Staphylococcus aureus infection-induced aortic valve endocarditis rabbit serum at 20 mg/kg, iv administered every 12 hrs measured 12hrs after seventh dose in presence of Dexamethasone; format: ADME, organism-based, Oryctolagus cuniculus; parameters: dose 20 mg/kg, route intravenous; conditions: read-out: Drug uptake
[2] = Concentration in Staphylococcus aureus infection-induced aortic valve endocarditis rabbit serum at 20 mg/kg, iv administered every 12 hrs measured 30 mins after third dose; format: ADME, organism-based, Oryctolagus cuniculus; parameters: dose 20 mg/kg, route intravenous; conditions: read-out: Drug uptake
Staphylococcus aureus [3] = assay: Antibacterial activity against Staphylococcus aureus infection-induced aortic valve endocarditis in rabbit assessed as cured animals in blood culture at 20 mg/kg, iv administered every 12 hrs for 5 days sacrificed 12 days after last dose; format: functional, organism-based; parameters: dose 20 mg/kg
Staphylococcus aureus [4] = assay: Antibacterial activity against Staphylococcus aureus at 0.5 mg/liter by time kill assay; format: functional
[5] = Concentration in Staphylococcus aureus infection-induced aortic valve endocarditis rabbit serum at 20 mg/kg, iv administered every 12 hrs measured 12 hrs after third dose; format: ADME, organism-based, Oryctolagus cuniculus; parameters: dose 20 mg/kg, route intravenous; conditions: read-out: Drug uptake
Staphylococcus aureus [6] = assay: Cardiovascular activity in Staphylococcus aureus infection-induced aortic valve endocarditis rabbit assessed as increase in fractional shortening at 20 mg/kg, iv administered every 12 hrs for 5 days […]; format: functional, organism-based; parameters: dose 20 mg/kg
Oryctolagus cuniculus [7] = assay: Toxicity in Staphylococcus aureus infection-induced aortic valve endocarditis rabbit assessed as fibrous content median score at 20 mg/kg, iv administered every 12 hrs for 5 days sacrificed 12 days after last dose by histopathology; format: organism-based; parameters: dose 20 mg/kg, route intravenous; conditions: in vivo, 288 h
[8] = Concentration in Staphylococcus aureus infection-induced aortic valve endocarditis rabbit serum at 20 mg/kg, iv administered every 12 hrs measured 30 mins after seventh dose in presence of Dexamethasone; format: ADME, organism-based, Oryctolagus cuniculus; parameters: dose 20 mg/kg, route intravenous; conditions: read-out: Drug uptake
Staphylococcus aureus [9] = assay: Antibacterial activity against Staphylococcus aureus by manual microdilution technique; format: functional
[10] = AUC (0 to 12 hrs) in Staphylococcus aureus infection-induced aortic valve endocarditis rabbit at 20 mg/kg, iv administered every 12 hrs measured after third dose; format: ADME, organism-based, Oryctolagus cuniculus; parameters: time < 12 hr, dose 20 mg/kg, route intravenous; conditions: plasma
Oryctolagus cuniculus [11] = assay: Toxicity in Staphylococcus aureus infection-induced aortic valve endocarditis rabbit assessed as calcification median score at 20 mg/kg, iv administered every 12 hrs for 5 days sacrificed 12 days after last dose by histopathology; format: organism-based; parameters: dose 20 mg/kg, route intravenous; conditions: in vivo, 288 h
Staphylococcus aureus [12] = assay: Antibacterial activity against Staphylococcus aureus infection-induced aortic valve endocarditis in rabbit assessed as cured animals in blood culture at 20 mg/kg, iv administered every 12 hrs for 5 days sacrificed 12 hrs after end of treatment; format: functional, organism-based; parameters: dose 20 mg/kg
Staphylococcus aureus [13] = assay: Antibacterial activity against Staphylococcus aureus infection-induced aortic valve endocarditis in rabbit assessed as reduction in bacterial burdens in blood culture at 20 mg/kg, iv administered every 12 hrs for 5 days sacrificed 12 days after last dose; format: functional
[14] = Drug level in Staphylococcus aureus infection-induced aortic valve endocarditis rabbit serum at 20 mg/kg, iv administered every 12 hrs measured 30 mins after seventh dose; format: ADME, organism-based, Oryctolagus cuniculus; parameters: dose 20 mg/kg, route intravenous; conditions: read-out: Drug uptake
Oryctolagus cuniculus [15] = assay: Toxicity in Staphylococcus aureus infection-induced aortic valve endocarditis rabbit assessed as inflammatory cell infiltration median score at 20 mg/kg, iv administered every 12 hrs for 5 days sacrificed 12 days after last dose by histopathology; format: organism-based; parameters: dose 20 mg/kg, route intravenous; conditions: in vivo, 288 h
Staphylococcus aureus [16] = assay: Antibacterial activity against Staphylococcus aureus infection-induced aortic valve endocarditis in rabbit assessed as reduction in bacterial burdens in heart valve tissue culture at 20 mg/kg, iv administered every 12 hrs for 5 days sacrificed 12 hrs after end of treatment; format: functional, Aorta
Oryctolagus cuniculus [17] = assay: Toxicity in Staphylococcus aureus infection-induced aortic valve endocarditis rabbit assessed as tissue valve damage median score at 20 mg/kg, iv administered every 12 hrs for 5 days sacrificed 12 days after last dose by histopathology; format: organism-based; parameters: dose 20 mg/kg, route intravenous; conditions: in vivo
Staphylococcus aureus [18] = assay: Antibacterial activity against Staphylococcus aureus infection-induced aortic valve endocarditis in rabbit assessed as reduction in bacterial burdens in heart valve tissue culture at 20 mg/kg, iv administered every 12 hrs for 5 days sacrificed 12 days after last dose; format: functional, Aorta
Staphylococcus aureus [19] = assay: Antibacterial activity against Staphylococcus aureus by Etest; format: functional
Staphylococcus aureus [20] = assay: Antibacterial activity against Staphylococcus aureus infection-induced aortic valve endocarditis in rabbit assessed as reduction in bacterial burdens in blood culture at 20 mg/kg, iv administered every 12 hrs for 5 days sacrificed 12 hrs after end of treatment; format: functional
[21] = AUC (0 to 12 hrs) in Staphylococcus aureus infection-induced aortic valve endocarditis rabbit at 20 mg/kg, iv administered every 12 hrs measured after seventh dose in presence of Dexamethasone; format: ADME, organism-based, Oryctolagus cuniculus; parameters: time < 12 hr, dose 20 mg/kg, route intravenous; conditions: plasma
[22] = AUC (0 to 12 hrs) in Staphylococcus aureus infection-induced aortic valve endocarditis rabbit at 20 mg/kg, iv administered every 12 hrs measured after seventh dose; format: ADME, organism-based, Oryctolagus cuniculus; parameters: time < 12 hr, dose 20 mg/kg, route intravenous; conditions: plasma
[23] = Drug level in Staphylococcus aureus infection-induced aortic valve endocarditis rabbit serum at 20 mg/kg, iv administered every 12 hrs measured 12 hrs after seventh dose; format: ADME, organism-based, Oryctolagus cuniculus; parameters: dose 20 mg/kg, route intravenous; conditions: read-out: Drug uptake
Oryctolagus cuniculus [24] = assay: Toxicity in Staphylococcus aureus infection-induced aortic valve endocarditis rabbit assessed as collagenization median score at 20 mg/kg, iv administered every 12 hrs for 5 days sacrificed 12 days after last dose by histopathology; format: organism-based; parameters: dose 20 mg/kg, route intravenous; conditions: in vivo, 288 h
Staphylococcus aureus [25] = assay: Antibacterial activity against Staphylococcus aureus infection-induced aortic valve endocarditis in rabbit assessed as number of survival days at 20 mg/kg, iv administered every 12 hrs for 5 days; format: functional, Aorta

Question: Which concentration at 12 h [1] does the source give for COc1c(N2C[C@@H]3CCCN[C@@H]3C2)c(F)cc2c(=O)c(C(=O)O)cn(C3CC3)c12 [MOXIFLOXACIN] here?
Answer: 1000 ng/mL

Question: What about the concentration at 0.5 h [2] of the same compound?
Answer: 3730 ng/mL

Question: And the Activity (Staphylococcus aureus [3])?
Answer: Active

Question: And the log10CFU/ml (Staphylococcus aureus [4])?
Answer: >3

Question: And the concentration at 12 h [5]?
Answer: 230 ng/mL

Question: What about the Activity (Staphylococcus aureus [6]) of the same compound?
Answer: Active

Question: And the Activity (Oryctolagus cuniculus [7])?
Answer: 1.6

Question: What about the concentration at 0.5 h [8] of the same compound?
Answer: 3330 ng/mL

Question: What about the MBC (Staphylococcus aureus [9]) of the same compound?
Answer: 0.125 µg/mL (≈ 0.311 µM)

Question: And the MIC (Staphylococcus aureus [9])?
Answer: 0.125 µg/mL (≈ 0.311 µM)

Question: And the AUC at 12 h [10]?
Answer: 16500 ng·h/mL

Question: What about the Activity (Oryctolagus cuniculus [11]) of the same compound?
Answer: 1.6

Question: And the Activity (Staphylococcus aureus [12])?
Answer: Active

Question: What about the log10CFU/ml (Staphylococcus aureus [13]) of the same compound?
Answer: 2.76 log10 CFU/ml

Question: And the concentration at 0.5 h [14]?
Answer: 4390 ng/mL

Question: What about the Activity (Oryctolagus cuniculus [15]) of the same compound?
Answer: 1.2

Question: And the log10CFU/g (Staphylococcus aureus [16])?
Answer: 2.1

Question: And the Activity (Oryctolagus cuniculus [17])?
Answer: 2.3

Question: And the log10CFU/g (Staphylococcus aureus [18])?
Answer: 2.2

Question: And the MIC (Staphylococcus aureus [19])?
Answer: 0.064 µg/mL (≈ 0.159 µM)

Question: And the log10CFU/ml (Staphylococcus aureus [20])?
Answer: 2.83

Question: And the AUC at 12 h [21]?
Answer: 23900 ng·h/mL

Question: And the AUC at 12 h [22]?
Answer: 22200 ng·h/mL

Question: And the concentration at 12 h [23]?
Answer: 510 ng/mL

Question: And the Activity (Oryctolagus cuniculus [24])?
Answer: 2

Question: What about the Survival (Staphylococcus aureus [25]) of the same compound?
Answer: 15.3 days

Question: Which MBC (Staphylococcus aureus [9]) does the source give for CC1(C)S[C@@H]2[C@H](NC(=O)[C@H](N)c3ccc(O)cc3)C(=O)N2[C@H]1C(=O)O [AMOXICILLIN] here?
Answer: 4 µg/mL (≈ 10.9 µM)

Question: What about the MIC (Staphylococcus aureus [9]) of the same compound?
Answer: 2 µg/mL (≈ 5.47 µM)

Question: What does the source list for Cc1onc(-c2ccccc2)c1C(=O)N[C@@H]1C(=O)N2[C@@H]1SC(C)(C)[C@@H]2C(=O)O [OXACILLIN]?
Answer: MBC (Staphylococcus aureus [9]): 0.5 µg/mL (≈ 1.25 µM); MIC (Staphylococcus aureus [9]): ≤ 0.25 µg/mL
